Experimental findings from ChEMBL document CHEMBL4613209, “Quinolone hybrids and their anti-cancer activities: An overview” (Eur J Med Chem, 2019) are described below.

Structures are written as SMILES.

For the first experiment, the system named is HL-60. Description: Cytotoxicity against human HL60 cells assessed as reduction in cell viability by MTT assay. It counts as functional, cell-based. Background: Tetrazolium dyes change colour on reduction, which living cells bring about.
The IC50 is the concentration at which inhibition is half-maximal. As to `CC1COc2c(N3CCN(C)CC3)c(F)cc3c(=O)c(-c4nc5scc(-c6ccc(F)cc6)n5n4)cn1c23` (stereo not given), the IC50 fell in the range of 3.6 to 56.8 µM.
`CCn1cc(-c2nc(SCc3nnc(-c4ccccc4OC)o3)n(CN(C)C)n2)c(=O)c2cc(F)c(N3CCN(C)CC3)cc21`: the IC50 was in the range of 1.5 to 24.5 µM.
For `CCn1cc(-c2nnc(SCc3nnc(-c4ccc(C)cc4)o3)[nH]2)c(=O)c2cc(F)c(N3CCN(C)CC3)cc21`, the IC50 was in the range of 3.8 to 35.2 µM.
As to `CCn1cc(-c2nc(SCc3nnc(-c4ccc(Cl)cc4)o3)n(CN(C)C)n2)c(=O)c2cc(F)c(N3CCN(C)CC3)cc21`, the IC50 was 1.5 to 24.5 µM.
Consider `CCn1cc(-c2nc3scc(-c4ccc(O)cc4)n3n2)c(=O)c2cc(F)c(N3CCN(C)CC3)cc21`, for which the IC50 was in the range of 3.6 to 56.8 µM.
`CCn1cc(-c2nnc(SCc3nnc(-c4cccc(C)c4)o3)[nH]2)c(=O)c2cc(F)c(N3CCN(C)CC3)cc21`: the IC50 is 3.8 to 35.2 µM.
Still for that read-out and setting: the result for `CCn1cc(-c2nnc(SCc3nnc(-c4ccccc4)o3)[nH]2)c(=O)c2cc(F)c(N3CCN(C)CC3)cc21` reads 3.8 to 35.2 µM; that for `CCn1cc(-c2nnc(SCc3nnc(-c4ccccc4OC)o3)[nH]2)c(=O)c2cc(F)c(N3CCN(C)CC3)cc21`, 3.8 to 35.2 µM; that for `CCn1cc(-c2nnc(SCc3nnc(-c4ccc(OC)cc4)o3)[nH]2)c(=O)c2cc(F)c(N3CCN(C)CC3)cc21`, 3.8 to 35.2 µM.

A further experiment has as its system CAPAN-1. Briefly: Cytotoxicity against human Capan1 cells assessed as reduction in cell viability by MTT assay. It counts as functional, cell-based.
Turning to `CC1COc2c(N3CCN(C)CC3)c(F)cc3c(=O)c(-c4nc5scc(-c6ccc(F)cc6)n5n4)cn1c23` (stereo not given), the IC50 is 3.6 to 56.8 µM.
Regarding `CCn1cc(-c2nc(SCc3nnc(-c4ccccc4OC)o3)n(CN(C)C)n2)c(=O)c2cc(F)c(N3CCN(C)CC3)cc21`, the IC50 is 1.5 to 24.5 µM.
As for `CCn1cc(-c2nnc(SCc3nnc(-c4ccc(C)cc4)o3)[nH]2)c(=O)c2cc(F)c(N3CCN(C)CC3)cc21`, the IC50 was 3.8 to 35.2 µM.
On to `CCn1cc(-c2nc(SCc3nnc(-c4ccc(Cl)cc4)o3)n(CN(C)C)n2)c(=O)c2cc(F)c(N3CCN(C)CC3)cc21`, for which the IC50 lay within 1.5 to 24.5 µM.
Still for that read-out and setting: the result for `CCn1cc(-c2nc3scc(-c4ccc(O)cc4)n3n2)c(=O)c2cc(F)c(N3CCN(C)CC3)cc21` reads 3.6 to 56.8 µM.
On to `CCn1cc(-c2nnc(SCc3nnc(-c4cccc(C)c4)o3)[nH]2)c(=O)c2cc(F)c(N3CCN(C)CC3)cc21`, for which the IC50 was in the range of 3.8 to 35.2 µM.
As for `CCn1cc(-c2nnc(SCc3nnc(-c4ccccc4)o3)[nH]2)c(=O)c2cc(F)c(N3CCN(C)CC3)cc21`, the IC50 is 3.8 to 35.2 µM.
The same measure, in the same setting: with `CCn1cc(-c2nnc(SCc3nnc(-c4ccccc4OC)o3)[nH]2)c(=O)c2cc(F)c(N3CCN(C)CC3)cc21` the figure was 3.8 to 35.2 µM; with `CCn1cc(-c2nnc(SCc3nnc(-c4ccc(OC)cc4)o3)[nH]2)c(=O)c2cc(F)c(N3CCN(C)CC3)cc21`, 3.8 to 35.2 µM.

The next experiment relates to L1210. Description: Cytotoxicity against mouse L1210 cells assessed as reduction in cell viability by MTT assay. It counts as functional, cell-based.
`CC1COc2c(N3CCN(C)CC3)c(F)cc3c(=O)c(-c4nc5scc(-c6ccc(F)cc6)n5n4)cn1c23` (stereo not given): the IC50 was 3.6 to 56.8 µM.
With `CCn1cc(-c2nc(SCc3nnc(-c4ccccc4OC)o3)n(CN(C)C)n2)c(=O)c2cc(F)c(N3CCN(C)CC3)cc21`, the IC50 was 1.5 to 24.5 µM.
Same read-out and setting: with `CCn1cc(-c2nnc(SCc3nnc(-c4ccc(C)cc4)o3)[nH]2)c(=O)c2cc(F)c(N3CCN(C)CC3)cc21` the figure was 3.8 to 35.2 µM; with `CCn1cc(-c2nc(SCc3nnc(-c4ccc(Cl)cc4)o3)n(CN(C)C)n2)c(=O)c2cc(F)c(N3CCN(C)CC3)cc21`, 1.5 to 24.5 µM.
For `CCn1cc(-c2nc3scc(-c4ccc(O)cc4)n3n2)c(=O)c2cc(F)c(N3CCN(C)CC3)cc21`, the IC50 lay in the range of 3.6 to 56.8 µM.
For the compound `CCn1cc(-c2nnc(SCc3nnc(-c4cccc(C)c4)o3)[nH]2)c(=O)c2cc(F)c(N3CCN(C)CC3)cc21`, the IC50 is 3.8 to 35.2 µM.
The same measure, in the same setting: with `CCn1cc(-c2nnc(SCc3nnc(-c4ccccc4)o3)[nH]2)c(=O)c2cc(F)c(N3CCN(C)CC3)cc21` the figure was 3.8 to 35.2 µM; with `CCn1cc(-c2nnc(SCc3nnc(-c4ccccc4OC)o3)[nH]2)c(=O)c2cc(F)c(N3CCN(C)CC3)cc21`, 3.8 to 35.2 µM.
Take `CCn1cc(-c2nnc(SCc3nnc(-c4ccc(OC)cc4)o3)[nH]2)c(=O)c2cc(F)c(N3CCN(C)CC3)cc21`: the IC50 is 3.8 to 35.2 µM.

The test system of another experiment is SMMC-7721. Briefly: Cytotoxicity against human SMMC7721 cells assessed as reduction in cell viability by MTT assay. It counts as functional, cell-based.
Turning to `CC1COc2c(N3CCN(C)CC3)c(F)cc3c(=O)c(-c4nc5scc(-c6ccc(F)cc6)n5n4)cn1c23` (stereo not given), the IC50 lay within 3.6 to 56.8 µM.
For the compound `CCn1cc(-c2nc(SCc3nnc(-c4ccccc4OC)o3)n(CN(C)C)n2)c(=O)c2cc(F)c(N3CCN(C)CC3)cc21`, the IC50 lay within 1.5 to 24.5 µM.
Same read-out and setting: the result for `CCn1cc(-c2nnc(SCc3nnc(-c4ccc(C)cc4)o3)[nH]2)c(=O)c2cc(F)c(N3CCN(C)CC3)cc21` reads 3.8 to 35.2 µM; that for `CCn1cc(-c2nc(SCc3nnc(-c4ccc(Cl)cc4)o3)n(CN(C)C)n2)c(=O)c2cc(F)c(N3CCN(C)CC3)cc21`, 1.5 to 24.5 µM; that for `CCn1cc(-c2nc3scc(-c4ccc(O)cc4)n3n2)c(=O)c2cc(F)c(N3CCN(C)CC3)cc21`, 3.6 to 56.8 µM.
Take `CCn1cc(-c2nnc(SCc3nnc(-c4cccc(C)c4)o3)[nH]2)c(=O)c2cc(F)c(N3CCN(C)CC3)cc21`: the IC50 was 3.8 to 35.2 µM.
Turning to `CCn1cc(-c2nnc(SCc3nnc(-c4ccccc4)o3)[nH]2)c(=O)c2cc(F)c(N3CCN(C)CC3)cc21`, the IC50 was 3.8 to 35.2 µM.
Turning to `CCn1cc(-c2nnc(SCc3nnc(-c4ccccc4OC)o3)[nH]2)c(=O)c2cc(F)c(N3CCN(C)CC3)cc21`, the IC50 was in the range of 3.8 to 35.2 µM.
The same measure, in the same setting: the result for `CCn1cc(-c2nnc(SCc3nnc(-c4ccc(OC)cc4)o3)[nH]2)c(=O)c2cc(F)c(N3CCN(C)CC3)cc21` reads 3.8 to 35.2 µM.

The subject of a further experiment is Hep 3B2. Briefly: Cytotoxicity against human Hep3B cells assessed as reduction in cell viability by MTT assay. It counts as functional, cell-based.
As for `CC1COc2c(N3CCN(C)CC3)c(F)cc3c(=O)c(-c4nc5scc(-c6ccc(F)cc6)n5n4)cn1c23` (stereo not given), the IC50 lay in the range of 3.6 to 56.8 µM.
With `CCn1cc(-c2nc(SCc3nnc(-c4ccccc4OC)o3)n(CN(C)C)n2)c(=O)c2cc(F)c(N3CCN(C)CC3)cc21`, the IC50 fell in the range of 1.5 to 24.5 µM.
Take `CCn1cc(-c2nnc(SCc3nnc(-c4ccc(C)cc4)o3)[nH]2)c(=O)c2cc(F)c(N3CCN(C)CC3)cc21`: the IC50 was in the range of 3.8 to 35.2 µM.
In the case of `CCn1cc(-c2nc(SCc3nnc(-c4ccc(Cl)cc4)o3)n(CN(C)C)n2)c(=O)c2cc(F)c(N3CCN(C)CC3)cc21`, the IC50 was 1.5 to 24.5 µM.
`CCn1cc(-c2nc3scc(-c4ccc(O)cc4)n3n2)c(=O)c2cc(F)c(N3CCN(C)CC3)cc21`: the IC50 is 3.6 to 56.8 µM.
The same measure, in the same setting: the result for `CCn1cc(-c2nnc(SCc3nnc(-c4cccc(C)c4)o3)[nH]2)c(=O)c2cc(F)c(N3CCN(C)CC3)cc21` reads 3.8 to 35.2 µM; that for `CCn1cc(-c2nnc(SCc3nnc(-c4ccccc4)o3)[nH]2)c(=O)c2cc(F)c(N3CCN(C)CC3)cc21`, 3.8 to 35.2 µM; that for `CCn1cc(-c2nnc(SCc3nnc(-c4ccccc4OC)o3)[nH]2)c(=O)c2cc(F)c(N3CCN(C)CC3)cc21`, 3.8 to 35.2 µM.
As to `CCn1cc(-c2nnc(SCc3nnc(-c4ccc(OC)cc4)o3)[nH]2)c(=O)c2cc(F)c(N3CCN(C)CC3)cc21`, the IC50 fell in the range of 3.8 to 35.2 µM.
